The target of one test is T1, FLT3-ITD (Homo sapiens, UniProt P36888).
T1 construct: FLT3-ITD; Invitrogen #PV6190
T1 sequence (P36888 1-993): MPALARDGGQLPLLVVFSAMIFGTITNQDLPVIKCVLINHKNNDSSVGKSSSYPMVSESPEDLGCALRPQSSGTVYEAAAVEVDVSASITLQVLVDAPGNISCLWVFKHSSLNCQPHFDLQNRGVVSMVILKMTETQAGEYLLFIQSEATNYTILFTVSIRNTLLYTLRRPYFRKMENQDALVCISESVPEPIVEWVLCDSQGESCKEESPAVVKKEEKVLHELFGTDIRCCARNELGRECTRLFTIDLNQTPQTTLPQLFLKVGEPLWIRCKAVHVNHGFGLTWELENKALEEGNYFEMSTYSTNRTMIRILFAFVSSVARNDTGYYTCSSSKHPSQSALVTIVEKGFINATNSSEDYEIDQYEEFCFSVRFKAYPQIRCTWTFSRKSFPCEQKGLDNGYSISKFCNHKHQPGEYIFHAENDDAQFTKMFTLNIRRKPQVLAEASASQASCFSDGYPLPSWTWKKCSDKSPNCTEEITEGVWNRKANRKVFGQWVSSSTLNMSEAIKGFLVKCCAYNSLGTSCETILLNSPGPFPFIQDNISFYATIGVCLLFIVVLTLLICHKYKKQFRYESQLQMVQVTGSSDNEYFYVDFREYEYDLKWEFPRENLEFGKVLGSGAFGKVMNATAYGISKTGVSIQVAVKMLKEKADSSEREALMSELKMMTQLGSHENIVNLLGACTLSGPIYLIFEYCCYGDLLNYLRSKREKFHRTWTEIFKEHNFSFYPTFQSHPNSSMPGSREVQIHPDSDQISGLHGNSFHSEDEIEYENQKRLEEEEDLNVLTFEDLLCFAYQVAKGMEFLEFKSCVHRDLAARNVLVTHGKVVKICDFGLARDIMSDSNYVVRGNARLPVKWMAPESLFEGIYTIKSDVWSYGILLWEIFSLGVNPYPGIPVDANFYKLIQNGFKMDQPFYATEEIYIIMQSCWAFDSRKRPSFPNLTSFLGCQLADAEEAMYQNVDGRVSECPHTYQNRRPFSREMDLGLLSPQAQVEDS
Description: FLT3-ITD biochemical kinase assay (AlphaScreen). From the text:
(§1) In order to determine the effect of compounds on FLT3 catalytic activity, kinase assays using recombinant enzymes and AlphaScreen® technology have been established. When the kinases are catalytically active, they phosphorylate a biotinylated peptide substrate on tyrosine residues. Using AlphaScreen® technology, the ability of the compounds to affect the catalytic activity of the kinases can be measured quantitatively. The peptide substrate is immobilized by the AlphaScreen® Streptavidin Donor beads and, upon phosphorylation by a tyrosine kinase, can bind to AlphaScreen® Anti-Phosphotyrosine (PY20) Acceptor beads. Upon excitation of these beads with laser light at 680 nm, singlet oxygen is produced. This singlet oxygen is rapidly quenched, unless the AlphaScreen® Anti-Phosphotyrosine (PY20) Acceptor beads are in close proximity, in which case a proximity signal can be measured at 580 nm. In the presence of catalytic activity, there is a very strong proximity signal. Selective kinase inhibitors affect a decrease in this proximity signal through a decrease in tyrosine phosphorylation of the peptide substrate.
(§2) Substrate • Poly (Glu4-Tyr) Peptide, biotin conjugate [Biotin-GG(EEEEY)10EE (SEQ ID NO: 4)] • UBI/Millipore #12-440 • Final concentration=30 nM
(§3) Adenosine Triphosphate (ATP) • Sigma #A-3377 • Final concentration for IC50 determination=10 μM (FLT3-D835Y) or 100 μM (FLT3 or FLT3-ITD) • Detection Reagent • AlphaScreen® Phosphotyrosine (PY20) Assay Kit • Perkin-Elmer #6760601M • Final concentration=10 μg/mL
(§4) Centrifuge 1 minute, shake to mix, and incubate as follows:
(§5) • Mix Streptavidin Donor beads at 6× final concentration in Stop/Detection buffer. • Add 5 μL Streptavidin Donor beads to the reaction plate. Centrifuge 1 minute, shake to mix, and incubate at room temperature for 20 minutes. • Mix Anti-Phosphotyrosine (PY20) Acceptor beads at 6× final concentration in Stop/Detection buffer. • Add 5 μL Anti-Phosphotyrosine (PY20) beads to the reaction plate. • Centrifuge 1 minute, shake to mix, and incubate at room temperature for 60 minutes. • Read plate on Wallac EnVision™ 2103 Multilabel Reader. In Vivo Model System Testing
For orientation: Alpha assays give light when donor and acceptor beads are brought close together.

A further test has as its target T2, FLT3-D835Y (Homo sapiens, UniProt P36888, D835Y).
T2 construct: purchased Invitrogen PV3967
T2 sequence (P36888 27-993 D835Y): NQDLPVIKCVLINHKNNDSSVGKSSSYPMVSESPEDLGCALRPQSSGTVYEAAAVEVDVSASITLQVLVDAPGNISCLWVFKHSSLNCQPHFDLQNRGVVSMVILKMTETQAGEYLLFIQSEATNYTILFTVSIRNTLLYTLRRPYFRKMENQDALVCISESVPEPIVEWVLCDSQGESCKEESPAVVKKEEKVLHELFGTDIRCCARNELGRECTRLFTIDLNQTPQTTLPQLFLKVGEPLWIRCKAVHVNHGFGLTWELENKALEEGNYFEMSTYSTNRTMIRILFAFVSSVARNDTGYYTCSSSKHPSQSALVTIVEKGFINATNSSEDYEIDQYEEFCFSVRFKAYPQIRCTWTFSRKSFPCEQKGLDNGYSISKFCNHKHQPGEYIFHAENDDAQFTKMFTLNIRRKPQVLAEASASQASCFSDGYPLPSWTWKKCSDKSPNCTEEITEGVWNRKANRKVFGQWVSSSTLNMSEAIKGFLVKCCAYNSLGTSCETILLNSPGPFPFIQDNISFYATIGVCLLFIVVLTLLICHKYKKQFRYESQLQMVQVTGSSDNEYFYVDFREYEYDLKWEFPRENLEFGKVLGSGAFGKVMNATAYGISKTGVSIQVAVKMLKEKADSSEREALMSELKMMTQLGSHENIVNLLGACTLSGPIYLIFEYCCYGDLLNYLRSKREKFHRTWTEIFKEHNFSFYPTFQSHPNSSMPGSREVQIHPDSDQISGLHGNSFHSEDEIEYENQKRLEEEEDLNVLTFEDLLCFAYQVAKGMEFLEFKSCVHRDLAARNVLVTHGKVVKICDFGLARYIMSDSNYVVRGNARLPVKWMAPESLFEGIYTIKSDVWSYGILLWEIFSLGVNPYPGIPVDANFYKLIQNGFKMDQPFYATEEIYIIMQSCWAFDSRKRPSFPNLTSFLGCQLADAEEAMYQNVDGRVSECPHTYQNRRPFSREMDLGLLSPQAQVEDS
Description: FLT3-D835Y biochemical kinase assay (AlphaScreen).
Excerpt: as §1, §2, §3, §4, §5

Structures are written as SMILES.

Broadly, the IC50 is the concentration that gives 50% inhibition. A lower IC50 goes with greater potency. With `COc1cnc2[nH]cc(-c3cnc4ncn(Cc5ccccc5)c4c3)c2c1` [P-143, 1-benzyl-6-(5-methoxy-1H-pyrrolo[2,3-b]pyridin-3-yl)imidazo[4,5-b]pyridine], the half-inhibitory concentration (IC50) against FLT3-ITD and against FLT3-D835Y was 0.0001 to 1 µM in each case.
As to `FC(F)(F)Cn1cc(-c2cnc3[nH]cc(-c4ccc5ncsc5c4)c3n2)cn1` [P-166, 6-[2-[1-(2,2,2-trifluoroethyl)pyrazol-4-yl]-5H-pyrrolo[2,3-b]pyrazin-7-yl]-1,3-benzothiazole], the IC50 at FLT3-ITD and on FLT3-D835Y was 0.0001 to 1 µM each time.
For `CC(C)n1cnc2ccc(-c3c[nH]c4ncc(-c5cccc(NS(C)(=O)=O)c5)nc34)cc21` [P-080, N-[3-[7-(3-isopropylbenzimidazol-5-yl)-5H-pyrrolo[2,3-b]pyrazin-2-yl]phenyl]methanesulfonamide], the IC50 against FLT3-ITD and against FLT3-D835Y was 0.0001 to 1 µM throughout.
`COc1cc(-c2cnc3[nH]cc(-c4ccc5ncn(C)c5c4)c3n2)cc(C)n1` [P-180, 2-(2-methoxy-6-methyl-4-pyridyl)-7-(3-methylbenzimidazol-5-yl)-5H-pyrrolo[2,3-b]pyrazine]: the half-inhibitory concentration (IC50) on FLT3-ITD and against FLT3-D835Y was 0.0001 to 1 µM throughout.
Turning to `COc1cc(-c2cnc3[nH]cc(-c4ccc5ncn(C(C)(C)C)c5c4)c3n2)ccc1C#N` [P-354, 4-[7-(3-tert-butylbenzimidazol-5-yl)-5H-pyrrolo[2,3-b]pyrazin-2-yl]-2-methoxy-benzonitrile], the IC50 on FLT3-ITD and against FLT3-D835Y was 0.0001 to 1 µM each time.
In the case of `COc1cc(-c2cnc3[nH]cc(-c4ccc5ncn(C)c5c4)c3n2)cc(OC)n1` [P-157, 2-(2,6-dimethoxy-4-pyridyl)-7-(3-methylbenzimidazol-5-yl)-5H-pyrrolo[2,3-b]pyrazine], the half-inhibitory concentration (IC50) on FLT3-ITD and at FLT3-D835Y was 0.0001 to 1 µM in each case.
Turning to `CC(C)(C)n1cnc2ccc(-c3c[nH]c4ncc(-c5ccnc(C6CC6)c5)nc34)cc21` [P-351, 7-(3-tert-butylbenzimidazol-5-yl)-2-(2-cyclopropyl-4-pyridyl)-5H-pyrrolo[2,3-b]pyrazine], the IC50 on FLT3-ITD and on FLT3-D835Y was 0.0001 to 1 µM throughout.
In the case of `COc1cccc(-c2cnc3[nH]cc(-c4ccc5ncsc5c4)c3n2)c1` [P-158, 6-[2-(3-methoxyphenyl)-5H-pyrrolo[2,3-b]pyrazin-7-yl]-1,3-benzothiazole], the IC50 at FLT3-ITD and on FLT3-D835Y was 0.0001 to 1 µM each time.
Consider `Cn1cnc2ccc(-c3c[nH]c4ncc(-c5cccc(CC(=O)O)c5)cc34)cc21` [P-185, 2-[3-[3-(3-methylbenzimidazol-5-yl)-1H-pyrrolo[2,3-b]pyridin-5-yl]phenyl]acetic acid], for which the half-maximal inhibitory concentration (IC50) on FLT3-ITD and at FLT3-D835Y was 0.0001 to 1 µM each time.
For `CC(C)(C)n1cnc2ccc(-c3c[nH]c4ncc(NS(=O)(=O)c5cccc(OC(F)(F)F)c5)cc34)cc21` [P-213, N-[3-(3-tert-butylbenzimidazol-5-yl)-1H-pyrrolo[2,3-b]pyridin-5-yl]-3-(trifluoromethoxy)benzenesulfonamide], the IC50 against FLT3-ITD fell in the range of 0.0001 to 1 µM; on FLT3-D835Y, 1 to 10 µM.
For `FC(F)(F)Oc1cccc(-c2cnc3[nH]cc(-c4ccc5ncn(C6CCCNC6)c5c4)c3c2)c1` (stereo not drawn) [P-203, 1-(3-piperidyl)-6-[5-[3-(trifluoromethoxy)phenyl]-1H-pyrrolo[2,3-b]pyridin-3-yl]benzimidazole] the same measures were 0.0001 to 1 µM and 0.0001 to 1 µM.
For `Fc1ccc(-n2cnc3ccc(-c4c[nH]c5ncc(-c6cccc(OC(F)(F)F)c6)cc45)cc32)cc1` [P-204, 1-(4-fluorophenyl)-6-[5-[3-(trifluoromethoxy)phenyl]-1H-pyrrolo[2,3-b]pyridin-3-yl]benzimidazole] the same measures were 0.0001 to 1 µM and 0.0001 to 1 µM.
For `Fc1ccc(-n2cnc3ccc(-c4c[nH]c5ncc(-c6cccc(OC(F)(F)F)c6)cc45)cc32)cc1Cl` [P-211, 1-(3-chloro-4-fluoro-phenyl)-6-[5-[3-(trifluoromethoxy)phenyl]-1H-pyrrolo[2,3-b]pyridin-3-yl]benzimidazole] the same measures were 0.0001 to 1 µM and 0.0001 to 1 µM.
In the case of `CC(C)S(=O)(=O)Nc1cccc(-c2cnc3[nH]cc(-c4ccc5ncn(C(C)(C)C)c5c4)c3c2)c1` [P-214, N-[3-[3-(3-tert-butylbenzimidazol-5-yl)-1H-pyrrolo[2,3-b]pyridin-5-yl]phenyl]propane-2-sulfonamide], the IC50 against FLT3-ITD and at FLT3-D835Y was 0.0001 to 1 µM throughout.
Regarding `CC(C)(C)n1cnc2ccc(-c3c[nH]c4ncc(-c5cnc(C(F)(F)F)nc5)nc34)cc21` [P-343, 7-(3-tert-butylbenzimidazol-5-yl)-2-[2-(trifluoromethyl)pyrimidin-5-yl]-5H-pyrrolo[2,3-b]pyrazine], the IC50 against FLT3-ITD and against FLT3-D835Y was 0.0001 to 1 µM throughout.
Regarding `c1cc(-c2cnc3[nH]cc(-c4ccc5ncsc5c4)c3n2)cc(N2CCOCC2)c1` [P-163, 4-[3-[7-(1,3-benzothiazol-6-yl)-5H-pyrrolo[2,3-b]pyrazin-2-yl]phenyl]morpholine], the half-inhibitory concentration (IC50) against FLT3-ITD and on FLT3-D835Y was 0.0001 to 1 µM throughout.
As to `COc1cc(-c2cnc3[nH]cc(-c4ccc5ncn(C6CCCC6)c5c4)c3n2)ccn1` [P-114, 7-(3-cyclopentylbenzimidazol-5-yl)-2-(2-methoxy-4-pyridyl)-5H-pyrrolo[2,3-b]pyrazine], the 50% inhibitory concentration (IC50) against FLT3-ITD and against FLT3-D835Y was 0.0001 to 1 µM in each case.
For the molecule `COc1cc(-c2cnc3[nH]cc(-c4ccc5ncsc5c4)c3n2)ccc1Cl` [P-161, 6-[2-(4-chloro-3-methoxy-phenyl)-5H-pyrrolo[2,3-b]pyrazin-7-yl]-1,3-benzothiazole], the IC50 was in the range of 1 to 10 µM on FLT3-ITD and 0.0001 to 1 µM at FLT3-D835Y.

For the origin of these results see patent US10160755B2 (Plexxikon Inc., priority 2015, dated 2018).
